Data taken from ChEMBL document CHEMBL1201862, “PubChem BioAssay data set” (2004).
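Following 48 hours of exposure in 96-well plates, responses at five concentrations were used to interpolate endpoints linearly. GI50: concentration for 50% inhibition of growth.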 The source made the active and inactive calls. No stated cut-off is given here; in the data, active = GI50 up to about 1.1 µM and inactive = higher.

What was measured:
Experiment in all cases: growth of human tumour cells (NCI), 48 h
DU-145 = test system: DU-145
SK-MEL-28 = test system: SK-MEL-28
SR = test system: SR
RPMI-8226 = test system: RPMI-8226
HT-29 = test system: HT-29
TK-10 = test system: TK-10
PC-3 = test system: PC-3
CAKI-1 = test system: CAKI-1
OVCAR-4 = test system: OVCAR-4
A498 = test system: A498
UACC-257 = test system: UACC-257
OVCAR-5 = test system: OVCAR-5
NCI/ADR-RES = test system: NCI/ADR-RES
SNB-19 = test system: SNB-19
SK-MEL-5 = test system: SK-MEL-5
HCT-116 = test system: HCT-116
NCI-H23 = test system: NCI-H23
HCT-15 = test system: HCT-15
K562 = test system: K562
UACC-62 = test system: UACC-62
SW-620 = test system: SW-620
OVCAR-8 = test system: OVCAR-8
EKVX = test system: EKVX
LOX IMVI = test system: LOX IMVI
UO-31 = test system: UO-31
Hs-578T = test system: Hs-578T
OVCAR-3 = test system: OVCAR-3
NCI-H226 = test system: NCI-H226
SN12C = test system: SN12C
CCRF-CEM = test system: CCRF-CEM
MDA-MB-231 = test system: MDA-MB-231
SF-295 = test system: SF-295
HCC 2998 = test system: HCC 2998
MDA-MB-435 = test system: MDA-MB-435
786-0 = test system: 786-0
HOP-62 = test system: HOP-62
M14 = test system: M14
MOLT-4 = test system: MOLT-4
KM12 = test system: KM12
HOP-92 = test system: HOP-92
NCI-H460 = test system: NCI-H460
SK-OV-3 = test system: SK-OV-3
Malme-3M = test system: Malme-3M
BT-549 = test system: BT-549
ACHN = test system: ACHN
A549 = test system: A549
T47D = test system: T47D
SK-MEL-2 = test system: SK-MEL-2
COLO 205 = test system: COLO 205
MCF7 = test system: MCF7
MDA-N = test system: MDA-N
U-251 = test system: U-251
HL-60 = test system: HL-60
SF-539 = test system: SF-539
SF-268 = test system: SF-268
NCI-H522 = test system: NCI-H522
IGROV-1 = test system: IGROV-1

CCOC(=O)C#Cc1ccccc1
GI50 (DU-145): 25.8 µM (inactive) | GI50 (SK-MEL-28): 16.8 µM (inactive) | GI50 (SR): 2.05 µM (inactive) | GI50 (RPMI-8226): 12.2 µM (inactive) | GI50 (HT-29): 7.24 µM (inactive) | GI50 (TK-10): 21.6 µM (inactive) | GI50 (PC-3): 8.95 µM (inactive) | GI50 (CAKI-1): 14.4 µM (inactive) | GI50 (OVCAR-4): 2.54 µM (inactive) | GI50 (A498): 21.3 µM (inactive) | GI50 (UACC-257): 33.9 µM (inactive) | GI50 (OVCAR-5): 5.08 µM (inactive) | GI50 (NCI/ADR-RES): 4.82 µM (inactive) | GI50 (SNB-19): 14.8 µM (inactive) | GI50 (SK-MEL-5): 3.72 µM (inactive) | GI50 (HCT-116): 1.91 µM (inactive) | GI50 (NCI-H23): 7.26 µM (inactive) | GI50 (HCT-15): 8.09 µM | GI50 (K562): 2.14 µM (inactive) | GI50 (UACC-62): 6.75 µM (inactive) | GI50 (SW-620): 8.2 µM (inactive) | GI50 (OVCAR-8): 8.75 µM (inactive) | GI50 (EKVX): 2.28 µM (inactive) | GI50 (LOX IMVI): 2.96 µM (inactive) | GI50 (UO-31): 0.741 µM (active) | GI50 (Hs-578T): 19.3 µM (inactive) | GI50 (OVCAR-3): 19.1 µM (inactive) | GI50 (NCI-H226): 20 µM (inactive) | GI50 (SN12C): 5.55 µM (inactive) | GI50 (CCRF-CEM): 2.94 µM (inactive) | GI50 (MDA-MB-231): 16.4 µM (inactive) | GI50 (SF-295): 13.5 µM (inactive) | GI50 (HCC 2998): 12.2 µM (inactive) | GI50 (MDA-MB-435): 7.18 µM (inactive) | GI50 (786-0): 4.84 µM (inactive) | GI50 (HOP-62): 17.3 µM (inactive) | GI50 (M14): 5.14 µM (inactive) | GI50 (MOLT-4): 2.9 µM (inactive) | GI50 (KM12): 12.2 µM (inactive) | GI50 (HOP-92): 18.3 µM (inactive) | GI50 (NCI-H460): 60 µM (inactive) | GI50 (SK-OV-3): 26.6 µM (inactive) | GI50 (Malme-3M): 13.1 µM (inactive) | GI50 (BT-549): 11.6 µM (inactive) | GI50 (ACHN): 14.6 µM (inactive) | GI50 (A549): 13.2 µM (inactive) | GI50 (T47D): 19.4 µM (inactive) | GI50 (SK-MEL-2): 1.69 µM (inactive) | GI50 (COLO 205): 11.2 µM (inactive) | GI50 (MCF7): 10.1 µM (inactive) | GI50 (MDA-N): 4.09 µM (inactive) | GI50 (U-251): 11.1 µM (inactive) | GI50 (HL-60): 14.4 µM (inactive) | GI50 (SF-539): 5.74 µM (inactive)

COc1cc([C@@H]2c3cc4c(cc3[C@@H](Nc3ccc(Cl)cc3C(=O)c3ccccc3)[C@H]3COC(=O)[C@H]23)OCO4)cc(OC)c1OC
GI50 (DU-145): 0.428 µM (active) | GI50 (SK-MEL-28): 0.372 µM (active) | GI50 (SR): 0.295 µM (active) | GI50 (RPMI-8226): 0.467 µM (active) | GI50 (HT-29): 0.307 µM (active) | GI50 (TK-10): > 100 µM (inactive) | GI50 (PC-3): 0.342 µM (active) | GI50 (CAKI-1): 0.601 µM (active) | GI50 (OVCAR-4): > 100 µM (inactive) | GI50 (A498): 0.195 µM (active) | GI50 (UACC-257): 0.998 µM (active) | GI50 (OVCAR-5): 0.598 µM (active) | GI50 (NCI/ADR-RES): 0.425 µM (active) | GI50 (SNB-19): 0.408 µM (active) | GI50 (SK-MEL-5): 0.298 µM (active) | GI50 (HCT-116): 0.291 µM (active) | GI50 (NCI-H23): 0.43 µM (active) | GI50 (HCT-15): 0.308 µM | GI50 (K562): 0.358 µM (active) | GI50 (UACC-62): 0.401 µM (active) | GI50 (SW-620): 0.369 µM (active) | GI50 (OVCAR-8): 0.359 µM (active) | GI50 (EKVX): > 100 µM (inactive) | GI50 (LOX IMVI): 0.303 µM (active) | GI50 (SF-268): 0.558 µM (active) | GI50 (UO-31): 1.19 µM (inactive) | GI50 (Hs-578T): 0.287 µM (active) | GI50 (OVCAR-3): 0.324 µM (active) | GI50 (SN12C): 0.518 µM (active) | GI50 (CCRF-CEM): 0.37 µM (active) | GI50 (MDA-MB-231): 0.586 µM (active) | GI50 (SF-295): 0.299 µM (active) | GI50 (HCC 2998): 0.205 µM (active) | GI50 (MDA-MB-435): 0.242 µM (active) | GI50 (786-0): 0.394 µM (active) | GI50 (HOP-62): 0.64 µM (active) | GI50 (M14): 0.414 µM (active) | GI50 (MOLT-4): 0.384 µM (active) | GI50 (KM12): 0.258 µM (active) | GI50 (NCI-H460): 0.277 µM (active) | GI50 (SK-OV-3): 0.641 µM (active) | GI50 (Malme-3M): 0.396 µM (active) | GI50 (BT-549): 0.457 µM (active) | GI50 (ACHN): 0.592 µM (active) | GI50 (A549): 0.501 µM (active) | GI50 (T47D): > 100 µM (inactive) | GI50 (SK-MEL-2): 2.34 µM (inactive) | GI50 (COLO 205): 0.416 µM (active) | GI50 (NCI-H522): 0.211 µM (active) | GI50 (MCF7): 0.395 µM (active) | GI50 (MDA-N): 0.307 µM (active) | GI50 (U-251): 0.241 µM (active) | GI50 (HL-60): 0.297 µM (active) | GI50 (SF-539): 0.274 µM (active) | GI50 (IGROV-1): 0.417 µM (active)
